Measurements published in ChEMBL document CHEMBL5518181, “Studies of antibacterial activity (in vitro and in vivo) and mode of action for des-acyl tridecaptins (DATs)” (Eur J Med Chem, 2024).
In brackets after ≈: the same amount, converted by molar mass. Activity calls are given as the source filed them. The rule behind the calls is not given here.

How the values were obtained:
Escherichia coli [1] = assay: Antibacterial activity against wild-type Escherichia coli ATCC 25922 assessed as inhibition of bacterial growth incubated for 18 hrs; assay type: functional; conditions: read-out: MIC100
[2] = Hemolytic activity in human red blood cells at 400 ug/ml incubated for 45 mins by spectrophotometric analysis relative to control; assay type: toxicity, cell-based, Erythrocyte; conditions: red blood cells (erythrocytes), at 400 µg/mL, read-out: Activity
[3] = Cytotoxicity against human HepG2 cells incubated for 40 hrs by celltiter-glo luminescent cell viability assay; assay type: toxicity, cell-based
Escherichia coli [4] = assay: Antibacterial activity against wild-type Escherichia coli ATCC 25922 assessed as inhibition of bacterial growth by measuring fold increase in MIC incubated for 18 hrs in presence of 50% heat inactivated human serum relative to control; assay type: functional
Escherichia coli [5] = assay: Antibacterial activity against Escherichia coli ATCC 25922 harboring hldE knock-out assessed as inhibition of bacterial growth incubated for 18 hrs; assay type: functional; conditions: read-out: MIC100
Acinetobacter baumannii = assay: Antibacterial activity against wild-type Acinetobacter baumannii ATCC 19606 assessed as inhibition of bacterial growth incubated for 20 hrs; assay type: functional; conditions: read-out: MIC100
[6] = Aqueous solubility of compound at pH 4.6; assay type: physicochemical
[7] = Chemical stability of compound in benzylamine; assay type: physicochemical
[8] = Chemical stability of compound in mercaptoethanol; assay type: physicochemical
[9] = Genotoxicity in human TK6 cells measured after 3 to 24 hrs; assay type: toxicity, cell-based; conditions: time 3-24 hrs
Cytochrome P450 2B6 = target: T1, Cytochrome P450 2B6 (Homo sapiens, UniProt P20813); assay: Induction of CYP2B6 (unknown origin); assay type: ADME
T1 sequence (P20813 whole entry): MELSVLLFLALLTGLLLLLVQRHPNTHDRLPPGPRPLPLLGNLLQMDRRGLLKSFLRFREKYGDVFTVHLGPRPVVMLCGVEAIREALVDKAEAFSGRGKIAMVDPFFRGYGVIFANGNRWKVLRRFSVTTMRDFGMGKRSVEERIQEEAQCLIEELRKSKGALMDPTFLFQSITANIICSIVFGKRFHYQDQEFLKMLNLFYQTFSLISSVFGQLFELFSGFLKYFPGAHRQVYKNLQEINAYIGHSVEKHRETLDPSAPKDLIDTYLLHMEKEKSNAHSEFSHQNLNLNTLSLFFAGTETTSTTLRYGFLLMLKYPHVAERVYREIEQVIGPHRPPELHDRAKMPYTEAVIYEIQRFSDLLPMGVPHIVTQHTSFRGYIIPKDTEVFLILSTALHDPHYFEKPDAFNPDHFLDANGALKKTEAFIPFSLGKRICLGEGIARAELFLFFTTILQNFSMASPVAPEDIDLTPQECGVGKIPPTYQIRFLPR

Cytochrome P450 1A2 = target: T2, Cytochrome P450 1A2 (Homo sapiens, UniProt P05177); assay: Induction of CYP1A2 (unknown origin); assay type: ADME
T2 sequence (P05177 whole entry): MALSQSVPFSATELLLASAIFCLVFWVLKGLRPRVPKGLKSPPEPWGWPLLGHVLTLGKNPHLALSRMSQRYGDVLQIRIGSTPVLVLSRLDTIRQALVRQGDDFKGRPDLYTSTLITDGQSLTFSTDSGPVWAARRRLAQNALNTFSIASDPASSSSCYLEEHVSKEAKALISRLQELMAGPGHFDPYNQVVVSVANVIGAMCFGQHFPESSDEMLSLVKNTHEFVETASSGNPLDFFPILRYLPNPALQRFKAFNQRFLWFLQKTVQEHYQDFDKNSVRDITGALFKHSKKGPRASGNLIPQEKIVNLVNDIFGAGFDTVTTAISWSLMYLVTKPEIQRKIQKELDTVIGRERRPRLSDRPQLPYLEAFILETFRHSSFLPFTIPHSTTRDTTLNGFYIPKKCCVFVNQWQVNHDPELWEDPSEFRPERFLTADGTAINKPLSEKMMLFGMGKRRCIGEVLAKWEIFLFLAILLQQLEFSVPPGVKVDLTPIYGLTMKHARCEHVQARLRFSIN

[10] = Cmax in Swiss mouse kidney at 10 mg/kg, iv administered as single bolus dose and measured upto 24 hrs by LC-MS/MS analysis; assay type: ADME, organism-based
[11] = Cmax in Swiss mouse liver at 10 mg/kg, iv administered as single bolus dose and measured upto 24 hrs by LC-MS/MS analysis; assay type: ADME, organism-based
[12] = AUClast in Swiss mouse liver at 10 mg/kg, iv administered as single bolus dose and measured upto 24 hrs by LC-MS/MS analysis; assay type: ADME, organism-based
[13] = Half life in Swiss mouse at 10 mg/kg, iv administered as single bolus dose and measured upto 24 hrs by LC-MS/MS analysis; assay type: ADME, organism-based; conditions: in vivo
Escherichia coli [14] = assay: Antibacterial activity against Escherichia coli Swiss 7 harboring mcr-1 gene assessed as inhibition of bacterial growth incubated for 18 hrs; assay type: functional; conditions: read-out: MIC100
Proteus mirabilis = assay: Antibacterial activity against Proteus mirabilis ATCC 7002 assessed as inhibition of bacterial growth incubated for 18 hrs; assay type: functional; conditions: read-out: MIC100
Serratia marcescens = assay: Antibacterial activity against intrinsically colistin resistant Serratia marcescens ATCC 13880 assessed as inhibition of bacterial growth incubated for 18 hrs; assay type: functional; conditions: read-out: MIC100
Escherichia coli [15] = assay: Antibacterial activity against Escherichia coli panel (100 strains) assessed as inhibition of bacterial growth; assay type: functional
Escherichia coli [16] = assay: Antibacterial activity against Escherichia coli ATCC 25922 assessed as inhibition of bacterial growth incubated for 18 hrs in presence of 5 mM KCl; assay type: functional, organism-based
Klebsiella pneumoniae [17] = assay: Antibacterial activity against Klebsiella pneumoniae ATCC 13883 assessed as inhibition of bacterial growth incubated for 18 hrs in presence of 150 mM NaCl; assay type: functional, organism-based
[18] = Drug localization in cytoplasm of Escherichia coli ATCC 25922 at 10 uM incubated for 10 mins by LC-MS/MS analysis; assay type: ADME, subcellular
Lipopolysaccharide (LPS) = assay: Binding affinity to Pseudomonas aeruginosa LPS assessed as dissociation constant by ITC analysis; assay type: subcellular
[19] = Toxicity in naive mouse at 5 to 15 mg/kg, iv administered as single dose every 4 hrs for 24 hrs; assay type: organism-based; conditions: in vivo, dose 5-15 mg/kg
Escherichia coli [20] = assay: Antibacterial activity against Escherichia coli ATCC 35218 infected in Swiss albino mouse septicemia model at 10 to 30 mg/kg, iv administered twice every 2 hrs and measured after 5 hrs; assay type: functional, organism-based; conditions: dose 10-30 mg/kg
Escherichia coli [21] = assay: Antibacterial activity against Escherichia coli ATCC 35218 infected in Swiss albino mouse septicemia model assessed as log10 reduction in bacterial burden below stasis in blood at 20 mg/kg, iv administered twice every 2 hrs and measured after 5 hrs; assay type: functional
Escherichia coli [22] = assay: Antibacterial activity against Escherichia coli ATCC 35218 infected in Swiss albino mouse septicemia model assessed as log10 reduction in bacterial burden below stasis in spleen at 20 mg/kg, iv administered twice every 2 hrs and measured after 5 hrs; assay type: functional
Escherichia coli [23] = assay: Antibacterial activity against Escherichia coli ATCC 25922 infected in cyclophosphamide immunosuppressed mouse thigh infection model at 30 to 90 mg/kg, iv administered every 2 hrs starting from 1 hr post infection and measured 25 hrs post infection; assay type: functional, organism-based; conditions: dose 30-90 mg/kg, time 24.0 hrs
Klebsiella pneumoniae [24] = assay: Antibacterial activity against Klebsiella pneumoniae ATCC 43816 infected in mouse urinary tract infection model assessed as reduction in bacterial burden in urine at <10 mg/kg, iv administered every 4 hrs and measured after 26 hrs; assay type: functional, organism-based

SMILES: CC[C@H](C)[C@@H](NC(=O)[C@@H](NC(=O)[C@H](CCC(=O)O)NC(=O)[C@H](Cc1ccccc1)NC(=O)[C@@H](CCN)NC(=O)[C@H](CCN)NC(=O)[C@H](CO)NC(=O)[C@@H](Cc1c[nH]c2ccccc12)NC(=O)[C@@H](CO)NC(=O)CNC(=O)[C@@H](CCN)NC(=O)[C@H](NC(=O)[C@H](C)N)C(C)C)C(C)C)C(=O)N[C@@H](C)C(=O)O
- MIC (Escherichia coli [1]): 4 µg/mL (≈ 2.73 µM)
- hemolysis at 0.75 h, 400 ug/ml [2]: 9.1%
- IC50 at 40 h [3]: > 170 µg/mL
- fold change (FC) (Escherichia coli [4]): 2
- MIC (Escherichia coli [5]): 4 µg/mL (≈ 2.73 µM)
- MIC (Acinetobacter baumannii): 32 µg/mL (≈ 21.8 µM)
- solubility [6]: > 1000 µg/mL
- Stability [7]: Stable
- Stability [8]: Stable
- Activity [9]: Non-Toxic
- Activity (Cytochrome P450 2B6): Not Active
- Activity (Cytochrome P450 1A2): Not Active
- Cmax [10]: 152 µg/mL
- Cmax [11]: 5.65 µg/mL
- AUC(0-t) at 24 h [12]: 3020 ng·h/mL
- half-life [13]: 22.8 min
- MIC (Escherichia coli [14]): 16 µg/mL (≈ 10.9 µM)
- MIC (Proteus mirabilis): > 64 µg/mL
- MIC (Serratia marcescens): 8 µg/mL (≈ 5.46 µM)
- MIC50 (Escherichia coli [15]): 4 µg/mL (≈ 2.73 µM)
- MIC90 (Escherichia coli [15]): 8 µg/mL (≈ 5.46 µM)
- Activity (Escherichia coli [16]): Active
- Activity (Klebsiella pneumoniae [17]): Active
- Drug uptake [18]: Active
- Kd (Lipopolysaccharide (LPS)): 42.8 µM
- Activity [19]: Non-Toxic
- Activity (Escherichia coli [20]): Active
- log(activity) (Escherichia coli [21]): ~2
- log(activity) (Escherichia coli [22]): 1
- Activity (Escherichia coli [23]): Active
- Activity (Klebsiella pneumoniae [24]): inactive
